In US20190040101A1, “COMPOUND FOR TREATING SEQUELAE OF ISCHEMIC CEREBRAL STROKE” (priority 2015, published 2019):
Residues, ends and D or L forms follow the SMILES beside them.

What was measured:
[1] = test system: right cerebral artery ischemia/reperfusion model in rats; experiment: Neurologic deficit score in the rat 1.5-hour ischemia/reperfusion model; format: in vivo, Sprague-Dawley (SD) rats; conditions: 3.6 mg/kg intraperitoneal once a day
Description: (§1) Sprague-Dawley (SD) rats, male, weighing 280-320 g, clean, feeding, conditions: room temperature of 20-25° C., humidity of 30-60%, well ventilated, ad libitum diet; the animals were acclimatized in the feeding environment for three days prior to the experiment.
(§2) The rats were anesthetized with 4% chloral hydrate (350 mg/kg, ip.) and then were fixed in a supine position. A midline ventral neck incision was made, the right common carotid artery was separated and snared with two sutures for further use. Then, the internal carotid artery and external carotid artery were separated, and the external carotid artery was ligatured. The separated common carotid artery was ligatured at its proximal end with a thread, and the blood flow of the same was blocked at its distal end with a bulldog clamp. A small opening was cut therebetween and a nylon suture (4-0) which is heated at one end into a bead-like shape (having a diameter of <0.3 mm) was inserted into the small opening. […]
Neurologic deficit scores were assessed for the above experimental animals according to the following procedure before the beginning of experiment and 24 hours, 1 day, 3 days, 7 days, 14 days, 28 days, 56 days, and 112 days after the beginning of experiment; Score rules: see Zea Longer score and NSS score, full score of 10; • (i) Lifting an animal by tail: (full score of 1) […]

[2] = Body weight of rats in the 1.5-hour ischemia/reperfusion model; format: in vivo, Sprague-Dawley (SD) rats; conditions: 3.6 mg/kg intraperitoneal once a day
Description: as §1
as §2, with “opening. The bulldog clamp was removed, and the nylon suture was gently advanced to the origin of the anterior cerebral artery (18-20 mm), thereby causing arterial ischemia in brain by blocking the blood supply of the cerebral artery. The skin was sutured and was sterilized with tincture of iodine.” for “opening.”

CC(C)CC(NC(=O)C(CCC(N)=O)NC(=O)C(NC(=O)C(CO)NC(=O)C(Cc1c[nH]cn1)NC(=O)C(N)C(C)C)C(C)C)C(=O)NC(Cc1ccc(O)cc1)C(=O)O (stereo not shown) [compound of formula (III)] (H-VHSVQLY-OH; configuration not given here)
neuroethology (neurologic deficit) score compared to the model group ([1]; I1.5R+1 week+dosing for 4 weeks, statistically significant in weeks 2, 3, 4, 5 and 7 after the operation, FIG. 4): gradually declined neuroethology score
neurological score compared to the model group ([1]; I1.5R+2 weeks+dosing for 4 weeks, statistically significant at the fifth week after the operation, FIG. 6): declined from the beginning of the administration
weight change compared to the model group ([2]; I1.5R+1 week+dosing for 4 weeks, FIG. 3): gradually increased weight
weight change compared to the model group ([2]; I1.5R+2 weeks+dosing for 4 weeks, weight data not demonstrative (groups already differed before dosing), FIG. 5): gradually increased weight
